Measured values from patent US20060111289A1, “Compositions and methods of using Alpha-fetoprotein growth inhibitory peptides” (Serometrix, LLC,, priority 2004, published 2006).

B1: α2-antiplasma: positive control in the platelet aggregation assay (protein, UniProt P08697 40-491, looked up)
Alpha-2-antiplasmin: NQEQVSPLTLLKLGNQEPGGQTALKSPPGVCSRDPTPEQTHRLARAMMAFTADLFSLVAQTSTCPNLILSPLSVALALSHLALGAQNHTLQRLQQVLHAGSGPCLPHLLSRLCQDLGPGAFRLAARMYLQKGFPIKEDFLEQSEQLFGAKPVSLTGKQEDDLANINQWVKEATEGKIQEFLSGLPEDTVLLLLNAIHFQGFWRNKFDPSLTQRDSFHLDEQFTVPVEMMQARTYPLRWFLLEQPEIQVAHFPFKNNMSFVVLVPTHFEWNVSQVLANLSWDTLHPPLVWERPTKVRLPKLYLKHQMDLVATLSQLGLQELFQAPDLRGISEQSLVVSGVQHQSTLELSEVGVEAAAATSIAMSRMSLSSFSVNRPFLFFIFEDTTGLPLFVGSVRNPNPSAPRELKEQQDSPGNKDFLQSLKGFPRGDKLFGPDLKLVPPMEEDYPQFGSPK

Key:
[1] = system: human kidney tumor cell line
human platelets = experiment: Platelet aggregation in human platelet-rich plasma; type: cell-based; parameters: % Inhibition Of Activity: Platelet Agg. ADP / % Inhibition Of Activity: Platelet Agg. AA / % Inhibition Of Activity: Platelet Agg. Coll: concentration or dose not given beside the values; settings: for % Inhibition Of Activity: Platelet Agg. ADP: ADP-induced; for % Inhibition Of Activity: Platelet Agg. AA: arachidonic acid-induced; for % Inhibition Of Activity: Platelet Agg. Coll: collagen-induced; for Inhibition (%) Of Platelet Aggregation, Adenosine Diphosphate (ADP) 2.5 μM / Inhibition (%) Of Platelet Aggregation, Arachidonic Acid (AA) 0.3 mM / Inhibition (%) Of Platelet Aggregation, Collagen (COLL) 2 μg/ml / Inhibition (%) Of Platelet Aggregation, Epinephrine: peptide inhibitors 30 & 100 μM
Procedure: FIG. 9 presents exemplary data showing platelet aggregation modulation using 0.5 ml of normal human platelet-rich plasma (PRP) with varying amounts of P149 or P 149b using 2.5×10^6 platelets per reaction vessel.
FIG. 10 presents exemplary data showing platelet aggregation activation by arachidonic acid (AA) and collagen using P149-treated platelet suspensions • Panel A1: AA alone; • Panel A2: AA followed by epinephine (EPI) and EPI alone using P149b; • Panel A3: CD62P flow cytometry fluorescence quenching by P149; • Panel B1: collagen alone and collagen+P149; • Panel B2: collagen alone; collagen+P149a showing aggregation diminution.
GIP-derived peptide fragments and/or subfragments have been assayed for platelet aggregation by measuring light transmissions with an aggregometer using a stirred human platelet suspension. Kinlough-Rathbone et al., In: Platelet Aggregation in Measurements of Platelet Function, Eds. Harker L A, Zimmerman T S., Churchill Livingstone, London. pp. 64-87 (1983); and Whittle et al., “Specificity between the anti-aggregatory actions of prostacyclin, prostaglandin Eland D2 on platelets” In: Mechanisms of stimulus—response coupling in platelets, Eds. V. V. K., MacIntyre D E, Scully M F., New York and London: Plenum Press. pp. 109-115 (1985).
The ability of GIP and its fragments were individually examined for aggregation inhibition using citrated human platelet-rich plasma (PRP). The peptides were freshly dissolved in 0.15 M NaCl containing 2.5×10^6 platelets/ml. […]

[2] = system: immature mouse uterine growth; experiment: E2-activated immature mouse uterine growth assay; type: in vivo; parameters: % Inhibition Of Activity: Uterine Growth: concentration or dose not given beside the values; settings: mouse, in vivo
Procedure: FIG. 3 presents exemplary data showing the growth suppressive activities of the oligomeric forms of P149, cyclic versus linear, are depicted in various in vitro and in vivo models. Biological activity was determined by three growth-dependent bioassays, namely; • Panel-A and A1) an immature rodent uterine bioassay; • Panel-B and B 1) an in vitro MCF-7 foci assay; • Panel-C and C1) an in vitro tumor cell cytostatic assessment. […] See text for details. Scrambled peptide=P327. […]

[3] = system: 6WI-1 mammary tumor cells; experiment: Mouse ascites mammary tumor assay (6WI-1 isograft); type: in vivo; settings: for Suppression of accumulation of cells and ascites fluid volume (anticancer activity): 1.0 μg peptide per day for 11 days; for % Inhibition Of Activity: 6WI-1 Acites Volume / % Inhibition Of Activity: 6WI-1 Body Weight / % Inhibition Of Activity: 6WI-1 Cell Prol: 6WI-1 mouse mammary ascites tumor
Procedure: The growth suppression of the mammary ascites tumor by AFP peptides and its fragments P149a, P149b and P149c, and control peptides were determined in non-estrogen dependent assays which measured tumor cell growth and ascites accumulation of 6WI-1 mammary transplanted NYLAR/nya mice. […] Tumor cell inocula included doses of 0.3, 1.0, and 3.0×10^6 cells which produced host mortality at 12-14 days which was lethal in 100% of the animals. Following peptide dose titration studies, mice inoculated with 6WI-1 mammary cells were injected with a previously-determined optimal dose of 1.0 μg peptide per day or saline for 11 days. On day 12 following inoculation, the total accumulated ascites fluid volume and tumor cells in the peritoneal cavity of each animal were harvested and the cell count determined.
Inoculation of mice with all three cell doses led to an increase in body weight from 25 g (day 0) to approximately […] by day 12, due to the accumulation of tumor cells and ascites fluid in the intraperitoneal cavity. An average cell count in accumulated ascites fluid on day 12 was greater than 10^8 cells/ml with a total ascites volume approximating 20 mls. Tumor cell proliferation in this model has been reported to correlate with the volume of ascites fluid accumulated.
The 6WI-1 mouse mammary tumor studies involving peptide and non-peptide treatment were further compared by histopathological analysis performed on hematoxylin/eosin stained tissue sections.

Estrogen fetotoxicity = experiment: Estrogen fetotoxicity; parameters: concentration or dose not given beside the values; settings: in vivo
[4] = system: 6WI-1 mammary tumor cells; experiment: 6WI-1 mammary tumor in 15-day old mouse pups (6 day assay); type: in vivo; parameters: % Inhibition Of Activity: 6WI-1 Pup Ascites: concentration or dose not given beside the values; settings: mouse pups
Description: As an alternative model of the 6WI-I mammary tumor in adult mice, an inocula of 1×10^6 tumor cells injected into 15-day old mouse pups provided a 6 day rather than a 12 day assay and replicated the same tumor growth suppression by GIP.

[5] = system: immature mouse uterine growth; experiment: E2-activated immature mouse uterine growth assay; type: in vivo; parameters: concentration or dose not given beside the values
MCF-7 cells = experiment: Estrogen-dependent MCF-7 foci formation assay; type: cell-based, human; parameters: % Inhibition Of Activity: MCF-7 foci formation: concentration or dose not given beside the values
Description: Mizejewski et al., “Alpha-fetoprotein derived synthetic peptides: assay of an estrogen-modifying regulatory segment” Mol Cell Endocrinol 118:15-23 (1996). The P149 peptide inhibited the formation of tumor cell foci formed as a result of the accumulation of breast cancer cells which clump together due to loss of contact inhibition.

[6] = system: MCF-7 and 6WI-1 tumor cells; experiment: Tumor cell adhesion to ECM proteins in microtiter plates; type: cell-based, human, murine
Procedure: FIG. 8 presents exemplary data showing the inhibition of P149 in the cellular adhesion of cancer cells to extracellular matrix (ECM) proteins for both human MCF-7 breast cancer cells and for murine 6WI-1 ascites-adapted mammary tumor cells. The cellular adhesion assay was performed in 96-well microtiter plates (Nunc Company, Denmark, catalog #263339) and the wells were pre-coated with 100 microliters of each of the above-mentioned ECM proteins for 24 hours as previously determined. After adding tumor cells, the plates were then incubated at 37° C. for various times; while 6WI-1 cells usually required only 2-4 hours incubation for adhesion; MCF-7 cells required 24 hours for attachment following trypsinization. For both cell lines, the cell culture media contained 5% calf serum to ensure cell attachment. The plates were washed twice with Hank's Saline, fixed in 0.5 mL of 37% formaldehyde, stained with crystal violet and read at […] on a microplate reader. Inset: Using a CyQUANT® stain kit, (Hoechst Corp., Germany) the plates were first exposed to a freeze/thaw cycle at −70° C. for 24 hours and 37° C. for 10 minutes. CyQUANT® buffer solution (150 microliters) was added to each well, and the cell adhesion was measured by fluorescence spectroscopy and quantitated using an ImageQuant® plate scanner (Fluorimager 595, Molecular Dynamics, Sunnyvale, Calif.).
This attachment of GIP was a slightly weaker adhesion matrix than was gelatin, chondroitin sulfate, and poly-lysine which approximated 30-35%. Using P149, the optimal amount of peptide required to inhibit tumor cell adhesion was determined by absorbing soluble peptide (1.0 pg to 100 μg) to the walls of microtiter plates. A constant number of MCF-7 tumor cells (i.e., for example, 1×10^5) were then added to the microtiter well and adhesion quantitated by fluorescence. […] The quantitation of MCF-7 and 6WI-1 cell adhesion in the presence of peptide versus peptide-free media was then determined on ECM-coated microtiter plates using 3 μg GIP/well as a competitive inhibitor. The P149 peptide was added to the wells immediately after the cells were dispensed and then the mixture was incubated as described. The AFP peptide was capable of cell adhesion inhibition in most of the ECM proteins in both tumor cell lines. Inhibition of mouse and human tumor cell adhesion was somewhat equivalent using collagen IV, fibrinogen, fibronectin, and thrombospondin. […] Thus, the GIP was found capable of eliciting different attachment inhibitions dependent on the type of ECM protein coating the wall of the microtiter plate and also the tumor cell type involved.

Row | Molecule | % Inhibition Of Activity: Kidney tumor growth [1] [%] | % Inhibition Of Activity: Platelet Agg. ADP (human platelets) [%] | % Inhibition Of Activity: Platelet Agg. AA (human platelets) [%] | % Inhibition Of Activity: Platelet Agg. Coll (human platelets) [%] | Inhibition (%) Of Platelet Aggregation, Adenosine Diphosphate (ADP) 2.5 μM (human platelets) | Inhibition (%) Of Platelet Aggregation, Arachidonic Acid (AA) 0.3 mM (human platelets) | Inhibition (%) Of Platelet Aggregation, Collagen (COLL) 2 μg/ml (human platelets) | Inhibition (%) Of Platelet Aggregation, Epinephrine (human platelets) | % Inhibition Of Activity: Uterine Growth [2] [%] | Suppression of accumulation of cells and ascites fluid volume (anticancer activity) [3] | % Inhibition Of Activity: 6WI-1 Acites Volume [3] [%] | % Inhibition Of Activity: 6WI-1 Body Weight [3] [%] | % Inhibition Of Activity: 6WI-1 Cell Prol [3] [%] | % Inhibition Of Activity: Estrogen Fetotoxicty (Estrogen fetotoxicity) [%] | % Inhibition Of Activity: 6WI-1 Pup Ascites [4] [%] | % Inhibition Of Activity: Uterine Growth, Enzymatic Fragments [5] [%] | % Inhibition Of Activity: MCF-7 foci formation (MCF-7 cells) [%] | % Inhibition Of Activity: Cell Adhesion [6] [%] | other results
1 | LSEDKLLACGEG (listed as Homo sapiens) [P149a] | 25 | 40 | 0 | 0 | 30-40 (biphasic % | No effect | No effect | No effect | 28 | but not P149a or P149b, significantly suppressed | 21 | 22 | 28 | 63 | 21 | 24 | 33 |  | 
2 | HPEAKRMPCAEDYLSVVLNQLCVLEHKTPVSDRV (listed as Homo sapiens) [P263, reference compound] | 0 | 0 | 0 | 0 |  |  |  |  | 0 |  | 10 | 13 | 5 | 0 | 0 | 0 | 0 | 0 | % Inhibition Of Activity: 6WI-1 Peptide Combos ([3]; peptide combination): 0%
3 | MTPVNPGV (listed as Homo sapiens) [P149c] | 19 | 0 | 0 | 0 | No effect | No effect | No effect | No effect | 42 | significantly suppressed | 39 | 44 | 45 | 37 | 29 | 44 | 45 | 56 | Inhibition of platelet aggregations induced by ADP and collagen (human platelets): no significant inhibition; Platelet aggregation inhibition (human platelets; inducer not specified): lack inhibitory capabilities
4 | Risotcetin [reference compound] |  |  |  |  | 100% | 100% | 100% | 100% |  |  |  |  |  |  |  |  |  |  | 
5 | B1 |  |  |  |  | 85-90% | 100% | 90% | No effect |  |  |  |  |  |  |  |  |  |  | 
